Values of other authors in patent US11484510B2, “Method to treat vitiligo” (APIRX PHAR[…], LLC, priority 2017, dated 2022).

Experiments:
CB1 receptor = CB1 receptor (Homo sapiens, UniProt P21554)
Sequence of CB1 receptor (P21554 whole entry): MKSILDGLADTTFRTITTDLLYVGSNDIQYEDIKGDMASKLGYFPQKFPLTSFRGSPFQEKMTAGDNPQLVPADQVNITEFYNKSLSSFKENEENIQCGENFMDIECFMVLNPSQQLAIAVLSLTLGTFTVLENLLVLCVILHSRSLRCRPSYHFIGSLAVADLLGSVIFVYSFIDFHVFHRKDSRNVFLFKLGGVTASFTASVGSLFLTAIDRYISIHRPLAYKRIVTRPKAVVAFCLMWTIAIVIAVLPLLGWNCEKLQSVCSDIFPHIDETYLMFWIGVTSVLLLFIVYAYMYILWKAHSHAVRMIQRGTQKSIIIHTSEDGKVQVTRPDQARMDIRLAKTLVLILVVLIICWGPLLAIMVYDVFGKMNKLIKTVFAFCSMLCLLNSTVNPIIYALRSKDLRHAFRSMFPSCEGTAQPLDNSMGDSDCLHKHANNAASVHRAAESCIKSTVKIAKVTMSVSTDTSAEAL

CCCCCc1cc(O)c(C/C=C(\C)CCC=C(C)C)c(O)c1 [CBG, 2-[(2E)-3,7-dimethylocta-2,6-dienyl]-5-pentyl-benzene-1,3-diol]
Affinity, CB1 receptor antagonist (CB1 receptor): low affinity
Affinity, 5-HT1A receptor antagonist (5-HT1A receptor): moderate affinity
Affinity, α2-adrenergic receptor agonist (α2-adrenergic receptor): high affinity
